Data reported in patent US11634404B2 (priority 2016, dated 2023).

Key:
Format in all cases: cell-based
D3R = D3R (Homo sapiens (Human), UniProt P35462); test: ERK1/2 Phosphorylation assay; settings: orthogonal assay
panel of 168 GPCRs [1] = biological target: panel of 168 GPCRs (Homo sapiens, UniProt Q96LB1); settings: GPCR MRGPRX2; agonist, 10 μM
panel of 168 GPCRs [2] = biological target: panel of 168 GPCRs (Homo sapiens, UniProt P14416); settings: GPCR DRD2L; agonist, 10 μM
panel of 168 GPCRs [3] = biological target: panel of 168 GPCRs (Homo sapiens, UniProt Q9UKP6); settings: GPCR UTR2; agonist, 10 μM
panel of 168 GPCRs [4] = biological target: panel of 168 GPCRs (Homo sapiens, UniProt P28566); settings: GPCR HTR1E; agonist, 10 μM
panel of 168 GPCRs [5] = biological target: panel of 168 GPCRs (Homo sapiens, UniProt P35346); settings: GPCR SSTR5; agonist, 10 μM
panel of 168 GPCRs [6] = biological target: panel of 168 GPCRs (Homo sapiens, UniProt P33032); settings: GPCR MC5R; agonist, 10 μM
panel of 168 GPCRs [7] = biological target: panel of 168 GPCRs (Homo sapiens, UniProt P48546); settings: GPCR GIPR; agonist, 10 μM
Chain of panel of 168 GPCRs (Homo sapiens, UniProt P48546) (P48546 22-466 limits assumed): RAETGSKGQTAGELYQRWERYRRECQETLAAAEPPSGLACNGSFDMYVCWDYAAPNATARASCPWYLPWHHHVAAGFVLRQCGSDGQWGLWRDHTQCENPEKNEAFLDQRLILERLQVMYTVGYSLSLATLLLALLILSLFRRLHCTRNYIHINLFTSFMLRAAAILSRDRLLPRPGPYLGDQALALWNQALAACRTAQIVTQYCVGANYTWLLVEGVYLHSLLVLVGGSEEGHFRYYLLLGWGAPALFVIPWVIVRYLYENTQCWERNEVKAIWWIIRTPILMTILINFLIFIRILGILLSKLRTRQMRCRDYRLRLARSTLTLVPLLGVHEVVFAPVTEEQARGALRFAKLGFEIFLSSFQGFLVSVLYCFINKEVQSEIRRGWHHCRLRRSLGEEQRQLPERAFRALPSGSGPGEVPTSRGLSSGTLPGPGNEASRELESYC

panel of 168 GPCRs [8] = biological target: panel of 168 GPCRs (Homo sapiens, UniProt P46663); settings: GPCR BDKRB1; agonist, 10 μM
panel of 168 GPCRs [9] = biological target: panel of 168 GPCRs (Homo sapiens, UniProt Q9GZQ6); settings: GPCR NPFFR1; agonist, 10 μM
panel of 168 GPCRs [10] = biological target: panel of 168 GPCRs (Homo sapiens, UniProt Q9P296); settings: GPCR C5L2; agonist, 10 μM
panel of 168 GPCRs [11] = biological target: panel of 168 GPCRs (Homo sapiens, UniProt Q9H3N8); settings: GPCR HRH4; agonist, 10 μM
panel of 168 GPCRs [12] = biological target: panel of 168 GPCRs (Homo sapiens, UniProt P34972); settings: GPCR CNR2; agonist, 10 μM
panel of 168 GPCRs [13] = biological target: panel of 168 GPCRs (Homo sapiens, UniProt P41586); settings: GPCR ADCYAP1R1; agonist, 10 μM
Chain of panel of 168 GPCRs (Homo sapiens, UniProt P41586) (P41586 21-468 limits assumed): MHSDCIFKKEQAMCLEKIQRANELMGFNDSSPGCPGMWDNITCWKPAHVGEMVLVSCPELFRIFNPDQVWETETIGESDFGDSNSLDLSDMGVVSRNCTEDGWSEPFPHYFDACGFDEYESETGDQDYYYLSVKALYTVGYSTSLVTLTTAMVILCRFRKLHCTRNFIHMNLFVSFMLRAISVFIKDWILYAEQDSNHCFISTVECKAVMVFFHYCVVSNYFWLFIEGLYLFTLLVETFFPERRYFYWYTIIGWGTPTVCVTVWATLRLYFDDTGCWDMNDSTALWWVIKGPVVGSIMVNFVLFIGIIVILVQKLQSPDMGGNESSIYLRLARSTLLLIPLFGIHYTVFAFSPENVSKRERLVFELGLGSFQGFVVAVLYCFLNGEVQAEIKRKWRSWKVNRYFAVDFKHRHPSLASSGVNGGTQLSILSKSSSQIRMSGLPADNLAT

panel of 168 GPCRs [14] = biological target: panel of 168 GPCRs (Homo sapiens, UniProt P49683); settings: GPCR PRLHR; agonist, 10 μM
panel of 168 GPCRs [15] = biological target: panel of 168 GPCRs (Homo sapiens, UniProt P11229); settings: GPCR CHRM1; agonist, 10 μM
panel of 168 GPCRs [16] = biological target: panel of 168 GPCRs (Homo sapiens, UniProt P08588); settings: GPCR ADRB1; agonist, 10 μM
panel of 168 GPCRs [17] = biological target: panel of 168 GPCRs (Homo sapiens, UniProt P25021); settings: GPCR HRH2; agonist, 10 μM
panel of 168 GPCRs [18] = biological target: panel of 168 GPCRs (Homo sapiens, UniProt P20309); settings: GPCR CHRM3; agonist, 10 μM
panel of 168 GPCRs [19] = biological target: panel of 168 GPCRs (Homo sapiens, UniProt P51582); settings: GPCR P2RY4; agonist, 10 μM
panel of 168 GPCRs [20] = biological target: panel of 168 GPCRs (Homo sapiens, UniProt P25101); settings: GPCR EDNRA; agonist, 10 μM
Chain of panel of 168 GPCRs (Homo sapiens, UniProt P25101) (P25101 21-427 limits assumed): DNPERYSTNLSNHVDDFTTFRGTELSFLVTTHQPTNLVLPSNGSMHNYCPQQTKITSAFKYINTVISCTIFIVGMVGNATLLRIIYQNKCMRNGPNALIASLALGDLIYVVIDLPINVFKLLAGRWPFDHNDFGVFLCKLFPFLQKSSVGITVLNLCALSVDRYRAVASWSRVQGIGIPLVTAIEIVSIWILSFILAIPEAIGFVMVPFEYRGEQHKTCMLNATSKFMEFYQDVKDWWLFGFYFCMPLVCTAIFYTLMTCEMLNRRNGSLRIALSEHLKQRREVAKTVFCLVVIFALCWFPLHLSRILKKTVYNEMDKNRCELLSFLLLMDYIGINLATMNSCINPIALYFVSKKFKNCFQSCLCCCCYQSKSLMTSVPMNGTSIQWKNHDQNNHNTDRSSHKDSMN

panel of 168 GPCRs [21] = biological target: panel of 168 GPCRs (Homo sapiens, UniProt P21452); settings: GPCR TACR2; agonist, 10 μM
panel of 168 GPCRs [22] = biological target: panel of 168 GPCRs (Homo sapiens, UniProt Q8TDV5); settings: GPCR GPR119; agonist, 10 μM
panel of 168 GPCRs [23] = biological target: panel of 168 GPCRs (Homo sapiens, UniProt O14842); settings: GPCR FFAR1; agonist, 10 μM
panel of 168 GPCRs [24] = biological target: panel of 168 GPCRs (Homo sapiens, UniProt Q03431); settings: GPCR PTHR1; agonist, 10 μM
Chain of panel of 168 GPCRs (Homo sapiens, UniProt Q03431) (Q03431 27-593 limits assumed): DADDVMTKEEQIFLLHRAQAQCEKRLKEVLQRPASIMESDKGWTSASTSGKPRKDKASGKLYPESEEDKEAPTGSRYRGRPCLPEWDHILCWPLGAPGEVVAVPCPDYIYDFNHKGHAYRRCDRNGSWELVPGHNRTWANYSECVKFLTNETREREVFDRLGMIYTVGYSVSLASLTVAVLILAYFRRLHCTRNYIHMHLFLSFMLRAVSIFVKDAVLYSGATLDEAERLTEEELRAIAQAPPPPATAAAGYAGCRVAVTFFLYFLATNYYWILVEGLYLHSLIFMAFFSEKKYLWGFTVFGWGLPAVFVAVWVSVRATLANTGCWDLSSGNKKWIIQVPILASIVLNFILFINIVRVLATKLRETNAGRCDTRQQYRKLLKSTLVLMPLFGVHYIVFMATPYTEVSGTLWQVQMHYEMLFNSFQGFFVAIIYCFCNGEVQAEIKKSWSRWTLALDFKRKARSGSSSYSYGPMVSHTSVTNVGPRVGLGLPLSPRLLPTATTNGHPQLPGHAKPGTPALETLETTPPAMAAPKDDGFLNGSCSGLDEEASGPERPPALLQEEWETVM

panel of 168 GPCRs [25] = biological target: panel of 168 GPCRs (Homo sapiens, UniProt Q01726); settings: GPCR MC1R; agonist, 10 μM
panel of 168 GPCRs [26] = biological target: panel of 168 GPCRs (Homo sapiens, UniProt Q9H1C0); settings: GPCR GPR92; agonist, 10 μM
panel of 168 GPCRs [27] = biological target: panel of 168 GPCRs (Homo sapiens, UniProt P25106); settings: GPCR CXCR7; agonist, 10 μM
panel of 168 GPCRs [28] = biological target: panel of 168 GPCRs (Homo sapiens, UniProt P21554); settings: GPCR CNR1; agonist, 10 μM
panel of 168 GPCRs [29] = biological target: panel of 168 GPCRs (Homo sapiens, UniProt P49238); settings: GPCR CX3CR1; agonist, 10 μM
[30] = system: terminally differentiated SHSY5Y cells; test: Neuroprotection assay against 6-hydroxydopamine; settings: 24 h pretreatment, 10 μM 6-hydroxydopamine
Procedure: […]. Protection against total neurite length decrease was measured 24 h later. […].

D2 DAR = D2 DAR (Homo sapiens (Human), UniProt P14416); settings: β-arrestin recruitment, agonist; 'curve' = wrapped cell 'curve interrupted'
Chain of D2 DAR (P14416 whole entry): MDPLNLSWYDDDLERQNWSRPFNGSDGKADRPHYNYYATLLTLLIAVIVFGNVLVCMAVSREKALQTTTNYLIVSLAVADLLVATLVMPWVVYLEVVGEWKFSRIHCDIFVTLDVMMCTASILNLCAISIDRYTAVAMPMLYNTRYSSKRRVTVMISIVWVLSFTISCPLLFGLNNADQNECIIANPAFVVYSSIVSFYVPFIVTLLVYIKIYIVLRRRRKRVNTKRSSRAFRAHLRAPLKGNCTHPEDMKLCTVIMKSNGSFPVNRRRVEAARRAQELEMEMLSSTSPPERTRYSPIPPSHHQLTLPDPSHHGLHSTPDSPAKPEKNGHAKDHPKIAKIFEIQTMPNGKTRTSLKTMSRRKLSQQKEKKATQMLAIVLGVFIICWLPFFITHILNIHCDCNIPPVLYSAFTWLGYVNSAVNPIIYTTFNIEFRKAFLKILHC
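For β-Arrestin Recruitment activity in this document: recruitment activity reported in % for each GPCR in the panel.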

Chain of D3R (P35462 whole entry): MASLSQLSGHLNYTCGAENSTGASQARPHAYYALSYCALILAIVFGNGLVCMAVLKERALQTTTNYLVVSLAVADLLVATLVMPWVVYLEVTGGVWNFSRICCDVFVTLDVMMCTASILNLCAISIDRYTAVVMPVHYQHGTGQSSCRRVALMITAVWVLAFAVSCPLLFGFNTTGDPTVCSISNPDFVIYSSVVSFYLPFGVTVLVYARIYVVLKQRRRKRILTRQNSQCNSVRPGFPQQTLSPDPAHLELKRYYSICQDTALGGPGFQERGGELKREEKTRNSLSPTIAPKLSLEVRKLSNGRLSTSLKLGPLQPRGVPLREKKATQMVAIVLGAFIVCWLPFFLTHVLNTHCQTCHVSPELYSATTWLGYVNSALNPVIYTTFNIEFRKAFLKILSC

COc1ccc(OCCN2CCN(C(=O)c3cc4ccccc4[nH]3)CC2)cc1 [Compound 1, (1H-indol-2-yl)(4-(2-(4-methoxyphenoxy)ethyl)piperazin-1-yl)methanone]
agonist activity, ERK phosphorylation (D3R): potent and fully efficacious D3R-selective agonist
β-Arrestin Recruitment activity (panel of 168 GPCRs [1]): 5%
β-Arrestin Recruitment activity (panel of 168 GPCRs [2]): 37%
β-Arrestin Recruitment activity (panel of 168 GPCRs [3]): 0%
β-Arrestin Recruitment activity (panel of 168 GPCRs [4]): 4%
β-Arrestin Recruitment activity (panel of 168 GPCRs [5]): 3%
β-Arrestin Recruitment activity (panel of 168 GPCRs [6]): 5%
β-Arrestin Recruitment activity (panel of 168 GPCRs [7]): 3%
β-Arrestin Recruitment activity (panel of 168 GPCRs [8]): 0%
β-Arrestin Recruitment activity (panel of 168 GPCRs [9]): 4%
β-Arrestin Recruitment activity (panel of 168 GPCRs [10]): 6%
β-Arrestin Recruitment activity (panel of 168 GPCRs [11]): 8%
β-Arrestin Recruitment activity (panel of 168 GPCRs [12]): −14%
β-Arrestin Recruitment activity (panel of 168 GPCRs [13]): 6%
β-Arrestin Recruitment activity (panel of 168 GPCRs [14]): 4%
β-Arrestin Recruitment activity (panel of 168 GPCRs [15]): 5%
β-Arrestin Recruitment activity (panel of 168 GPCRs [16]): 3%
β-Arrestin Recruitment activity (panel of 168 GPCRs [17]): 3%
β-Arrestin Recruitment activity (panel of 168 GPCRs [18]): 0%
β-Arrestin Recruitment activity (panel of 168 GPCRs [19]): 13%
β-Arrestin Recruitment activity (panel of 168 GPCRs [20]): 0%
β-Arrestin Recruitment activity (panel of 168 GPCRs [21]): 3%
β-Arrestin Recruitment activity (panel of 168 GPCRs [22]): 16%
β-Arrestin Recruitment activity (panel of 168 GPCRs [23]): 4%
β-Arrestin Recruitment activity (panel of 168 GPCRs [24]): 0%
β-Arrestin Recruitment activity (panel of 168 GPCRs [25]): 5%
β-Arrestin Recruitment activity (panel of 168 GPCRs [26]): 6%
β-Arrestin Recruitment activity (panel of 168 GPCRs [27]): 3%
β-Arrestin Recruitment activity (panel of 168 GPCRs [28]): 5%
β-Arrestin Recruitment activity (panel of 168 GPCRs [29]): 0%
neuroprotection, dose-response [30]: clear concentration dependent effect
neuroprotection, protection against total neurite length decrease ([30]; compared with pramipexole): neuroprotection superior to pramipexole
D2 Emax (D2 DAR): Curve
